Laboratory results from US11319299B2, “Substituted carboxamides as inhibitors of WDR5 protein-protein binding” (PROPELLON THERAPEUTICS INC., priority 2016, dated 2022).

Biological target: WDR5 (Homo sapiens (Human), UniProt P61964)
Experiment: Surface Plasmon Resonance (SPR) assay, KD and residence time
Type: binding
Conditions: surface plasmon resonance (SPR) assay; read-out: WDR5 binding affinity (KD)

| Kd [nM] | SMILES |
| --- | --- |
| 21.5 | C[C@@H]1CN(c2cc(F)c(-c3ccc(N4CCOCC4)cc3)cc2NC(=O)c2cc(Cl)cc(Cl)c2)C[C@H](C)N1C [Example 191, 3,5-dichloro-N-[4-fluoro-5-(4-morpholin-4-ylphenyl)-2-[(3R,5S)-3,4,5-trimethylpiperazin-1-yl]phenyl]benzamide] |
| 13.8 | C[C@@H]1CN(c2cc(F)c(-c3ccc(N4CCOCC4)cc3)cc2NC(=O)c2cn(C)c(=O)cc2C(F)(F)F)C[C@H](C)N1C [Example 204, N-[4-fluoro-5-(4-morpholin-4-ylphenyl)-2-[(3R,5S)-3,4,5-trimethylpiperazin-1-yl]phenyl]-1-methyl-6-oxo-4-(trifluoromethyl)pyridine-3-carboxamide] |
| 0.989 | CC1CN(c2cc(F)c(-c3cnc(N4CCN(C)CC4)nc3)cc2NC(=O)c2ccc(F)cc2C(F)(F)F)CCN1C (stereo in doubt) [Example 316, 4-fluoro-N-[4-fluoro-5-[2-(4-methylpiperazin-1-yl)pyrimidin-5-yl]-2-[(3R)-3,4-dimethylpiperazin-1-yl]phenyl]-2-(trifluoromethyl)benzamide] |
| 3.1 | C[C@@H]1CN(c2cc(F)c(C3=CCN(C(=O)OC(C)(C)C)CC3)cc2NC(=O)c2cn(C)c(=O)cc2C(F)(F)F)C[C@H](C)N1C [Example 313, tert-butyl 4-[2-fluoro-5-[[-methyl-6-oxo-4-(trifluoromethyl)pyridine-3-carbonyl]amino]-4-[(3R,5S)-3,4,5-trimethylpiperazin-1-yl]phenyl]-3,6-dihydro-2H-pyridine-1-carboxylate] |
| 0.244 | C[C@@H]1CN(c2cc(F)c(-c3cnc(N(C)[C@@H]4CCOC4)nc3)cc2NC(=O)c2c[nH]c(=O)cc2C(F)(F)F)CCN1C (stereo in doubt) [Example 362, N-[4-fluoro-5-[2-[methyl-[(3R)-oxolan-3-yl]amino]pyrimidin-5-yl]-2-[(3R)-3,4-dimethylpiperazin-1-yl]phenyl]-6-oxo-4-(trifluoromethyl)-1H-pyridine-3-carboxamide] |
| 2.08 | C[C@@H]1CN(c2cc(F)c(-c3cccc(C#N)c3)cc2NC(=O)c2c[nH]c(=O)cc2C(F)(F)F)C[C@H](C)N1C [Example 102, N-[5-(3-cyanophenyl)-4-fluoro-2-[(3R,5S)-3,4,5-trimethylpiperazin-1-yl]phenyl]-6-oxo-4-(trifluoromethyl)-1H-pyridine-3-carboxamide] |
| > 200 | CC1CN(c2cc(F)c(-c3cnc(N4CCOCC4)nc3)cc2NC(=O)c2csc(CN(C)C)n2)CCN1C (stereo in doubt) [Example 182, 2-[(dimethylamino)methyl]-N-[4-fluoro-5-(2-morpholin-4-ylpyrimidin-5-yl)-2-[(3R)-3,4-dimethylpiperazin-1-yl]phenyl]-1,3-thiazole-4-carboxamide] |
| 1.54 | C[C@@H]1CN(c2cc(F)c(C3=CCN(c4ncc(Cl)cn4)CC3)cc2NC(=O)c2c[nH]c(=O)cc2C(F)(F)F)C[C@H](C)N1C [Example 275, N-[5-[1-(5-chloropyrimidin-2-yl)-3,6-dihydro-2H-pyridin-4-yl]-4-fluoro-2-[(3R,5S)-3,4,5-trimethylpiperazin-1-yl]phenyl]-6-oxo-4-(trifluoromethyl)-1H-pyridine-3-carboxamide] |

Same assay, conditions: surface plasmon resonance (SPR); read-out: WDR5 binding affinity (KD)

| Kd [nM] | SMILES |
| --- | --- |
| 1.3 | C[C@@H]1CN(c2cc(F)c(C3=CCCN(c4nc(C#N)cs4)C3)cc2NC(=O)c2c[nH]c(=O)cc2C(F)(F)F)C[C@H](C)N1C [Example 642, N-[5-[1-(4-cyano-1,3-thiazol-2-yl)-3,6-dihydro-2H-pyridin-5-yl]-4-fluoro-2-[(3R,5S)-3,4,5-trimethylpiperazin-1-yl]phenyl]-6-oxo-4-(trifluoromethyl)-1H-pyridine-3-carboxamide] |
| 1.92 | C[C@@H]1CN(c2cc(F)c(-c3cnc(N4CCC(C)(O)CC4)nc3)cc2NC(=O)c2cn(C)c(=O)cc2C(F)(F)F)C[C@H](C)N1C [Example 641, N-[4-fluoro-5-[2-(4-hydroxy-4-methylpiperidin-1-yl)pyrimidin-5-yl]-2-[(3R,5S)-3,4,5-trimethylpiperazin-1-yl]phenyl]-1-methyl-6-oxo-4-(trifluoromethyl)pyridine-3-carboxamide] |
| 2.59 | C[C@@H]1CN(c2cc(F)c(-c3ncc(C(=O)N(C)CC4CC4)s3)cc2NC(=O)c2c[nH]c(=O)cc2C(F)(F)F)C[C@H](C)N1C [Example 497, N-(cyclopropylmethyl)-2-[2-fluoro-5-[[6-oxo-4-(trifluoromethyl)-1H-pyridine-3-carbonyl]amino]-4-[(3R,5S)-3,4,5-trimethylpiperazin-1-yl]phenyl]-N-methyl-1,3-thiazole-5-carboxamide] |
| 2.53 | C[C@@H]1CN(c2cc(F)c(-c3ccnc(OC4CCOCC4)n3)cc2NC(=O)c2c[nH]c(=O)cc2C(F)(F)F)C[C@H](C)N1C [Example 695, N-[4-fluoro-5-[2-(oxan-4-yloxy)pyrimidin-4-yl]-2-[(3R,5S)-3,4,5-trimethylpiperazin-1-yl]phenyl]-6-oxo-4-(trifluoromethyl)-1H-pyridine-3-carboxamide] |
| 1.41 | C[C@@H]1CN(c2cc(F)c(C3=CCN(c4ncc(C=O)cn4)CC3)cc2NC(=O)c2c[nH]c(=O)cc2C(F)F)C[C@H](C)N1C [Example 646, 4-(difluoromethyl)-N-[4-fluoro-5-[1-(5-formylpyrimidin-2-yl)-3,6-dihydro-2H-pyridin-4-yl]-2-[(3R,5S)-3,4,5-trimethylpiperazin-1-yl]phenyl]-6-oxo-1H-pyridine-3-carboxamide] |
| 1.31 | C[C@@H]1CN(c2cc(F)c(C3=CCN(c4ncc(C#N)s4)CC3)cc2NC(=O)c2c[nH]c(=O)cc2C(F)(F)F)C[C@H](C)N1C [Example 696, N-[5-[1-(5-cyano-1,3-thiazol-2-yl)-3,6-dihydro-2H-pyridin-4-yl]-4-fluoro-2-[(3R,5S)-3,4,5-trimethylpiperazin-1-yl]phenyl]-6-oxo-4-(trifluoromethyl)-1H-pyridine-3-carboxamide] |
| 3.47 | C[C@@H]1CN(c2cc(F)c(C3=CCN(C(=O)OC4CC(F)(F)C4)CC3)cc2NC(=O)c2c[nH]c(=O)cc2C(F)F)C[C@H](C)N1C [Example 702, (3,3-difluorocyclobutyl) 4-[5-[[4-(difluoromethyl)-6-oxo-1H-pyridine-3-carbonyl]amino]-2-fluoro-4-[(3R,5S)-3,4,5-trimethylpiperazin-1-yl]phenyl]-3,6-dihydro-2H-pyridine-1-carboxylate] |
| 1.87 | CC1CN(c2cc(F)c(C3=CCCN(c4ncccn4)C3)cc2NC(=O)c2ccc(F)cc2C(F)(F)F)CCN1C (stereo in doubt) [Example 649, 4-fluoro-N-[4-fluoro-5-(1-pyrimidin-2-yl-3,6-dihydro-2H-pyridin-5-yl)-2-[(3R)-3,4-dimethylpiperazin-1-yl]phenyl]-2-(trifluoromethyl)benzamide] |
| 2.28 | CC(C)N1CCN(c2ncc(-c3cc(NC(=O)c4ccc(F)cc4C(F)(F)F)c(N4C[C@@H](C)N(C)[C@@H](C)C4)cc3F)cn2)CC1 [Example 466, 4-fluoro-N-[4-fluoro-5-[2-(4-propan-2-ylpiperazin-1-yl)pyrimidin-5-yl]-2-[(3R,5S)-3,4,5-trimethylpiperazin-1-yl]phenyl]-2-(trifluoromethyl)benzamide] |
